The source of these data is patent US20220273765A1, “TOPICAL FORMULATION” (Follicum AB, priority 2019, published 2022).

Read-outs that look alike come from different tables or passages of the source. No end group written: not given here.

The test system of data set [1] is C57BL/6 mice in stable telogen phase. The data set is described as follows: Hair growth promotion efficacy in C57BL/6 mouse model by topical route. The class given is in vivo. Conditions: 5% solution, 50 μL/cm2 topically twice daily, 4 weeks + 1 week observation. How it is done: C57Bl6 mice in stable telogen phase (age 6-9 weeks) were carefully clipped. Topical formulation of FOL-005 at three different strengths and placebo was applied at the clipped area once daily, 5 days per week until day 26. For comparison Minoxidil was administered to one group twice daily, 5 days per week until day 26.
The present study was conducted to evaluate the hair growth promotion efficacy of FOL-005 in C57BL/6 mouse model by topical route of administration. Male C57BL/6 mice in stable telogen phase (resting phase) of hair growth cycle were used. The hair on the dorsal back of the animals was clipped and the area was treated with FOL-005 topical formulation, placebo formulation or commercially available Minoxidil 5%.
Three formulations of FOL-005 (High dose—0.5%, Medium dose—0.05% and Low dose—0.005%) along with placebo were screened for hair growth promotion efficacy by applying 50 μL/cm2 on the dorsal clipped skin of animals in the respective groups. The application regimen was total of 4 weeks (5 days/week) followed by 1 week of observation period. […] After completion of observation period, it was observed that FOL-005 formulation led to hair growth promotion efficacy in a dose response manner. […] Visual melanogenesis was also observed in the peeled skin of 3/7 animals, 2/7 animals and 1/7 animal in the High, Medium and Low dose respectively. […]

A short description of data set [2]: Solubility of FOL-005 in vehicle excipients and artificial sebum (HPLC). Format: physicochemical. As to the method: The testing was performed by charging 0.1% (w/w) of FOL-005 together with 99.90% excipient. […] The mixtures were stirred with magnetic stirrer for 2 hours. If particles of FOL-005 remained, the mixture was centrifuged at 14000 rpm or 10000 rpm (artificial sebum) for 5 minutes and the supernatant was withdrawn for analysis. The concentration of FOL-005 was determined by HPLC analysis in all batches.

The mark [3] stands for this setting: sodium salt, in PBS buffer pH 7.4, room temperature.

Consider `Nc1cc(N2CCCCC2)nc(N)[n+]1[O-]` [Minoxidil], for which, in data set [1], the “Anagen induction followed by hair growth” value is 4/5 and the “Visual melanogenesis in the peeled skin” value is listed as 4/5.
For the molecule VDTYDGDISVVYGLR [FOL-005], the solubility at 2 h in data set [2] (0.5% Cithrol in paraffin oil, sodium salt, in 0.5% Cithrol in paraffin oil, room temperature, read-out: FOL-005 solubility) is 10 µg/mL; in data set [2] (10% glucose in water, in 10% Glucose in water, room temperature, read-out: FOL-005 solubility) it was above 1010 µg/mL; in data set [2] (10% mannitol in water, in 10% Mannitol in water, room temperature, read-out: FOL-005 solubility), above 1040 µg/mL; in data set [2] (10% sucrose in water, in 10% Sucrose in water, room temperature, read-out: FOL-005 solubility), above 1040 µg/mL; in data set [2] (30% glucose in water, in 30% Glucose in water, room temperature, read-out: FOL-005 solubility), above 1070 µg/mL; in data set [2] (30% sucrose in water, in 30% Sucrose in water, room temperature, read-out: FOL-005 solubility), above 1040 µg/mL. Besides, the solubility at 2 h was above 1000 µg/mL in data set [2] (PBS buffer, pH 7.4, sodium salt, in PBS buffer pH 7.4, room temperature, read-out: FOL-005 solubility); 270 µg/mL in data set [2] (artificial sebum, sodium salt, in artificial sebum, 37° C., read-out: FOL-005 solubility); above 1170 µg/mL in data set [2] (lactic acid, in lactic acid, room temperature, read-out: FOL-005 solubility); above 1000 µg/mL in data set [2] (sugar solutions of glucose, mannitol and sucrose, sodium salt, sugar solutions of glucose, mannitol and sucrose, room temperature, read-out: solubility in sugar solutions). Also, the “solubility of FOL-005 in 10% glucose solution” value in data set [2] (10% glucose solution) is listed as “above 4.38 % (w/w)”. For the same molecule, the Observation entry is reported as “soluble” in data set [2] (in 10% Glucose in water, room temperature); “soluble” in data set [2] (in 10% Mannitol in water, room temperature); “soluble” in data set [2] (in 10% Sucrose in water, room temperature); “soluble” in data set [2] (in 30% Glucose in water, room temperature); “soluble” in data set [2] (in 30% Sucrose in water, room temperature); “soluble” in data set [2] (in lactic acid, room temperature). In addition, in data set [2] (setting [3]), the Observation result was “soluble”. Moreover, the FOL-005 solubility in data set [2] (setting [3]) is above 980 µg/mL.
